{
  "source": "patent US20210253651A1",
  "about": "“METHOD FOR PRODUCING ORGANIC COMPOUND-ENCAPSULATING FERRITIN” (Ajinomoto Co., Inc., priority 2018, published 2021)",
  "key": {"FTH ferritin [1]": {"molecular_target": "T1, FTH ferritin (Homo sapiens, UniProt P02794)", "T1 construct": "made in house; host or cells: Escherichia coli BL21 (DE3), plasmid pET20-FTH", "T1 sequence (P02794 whole entry)": "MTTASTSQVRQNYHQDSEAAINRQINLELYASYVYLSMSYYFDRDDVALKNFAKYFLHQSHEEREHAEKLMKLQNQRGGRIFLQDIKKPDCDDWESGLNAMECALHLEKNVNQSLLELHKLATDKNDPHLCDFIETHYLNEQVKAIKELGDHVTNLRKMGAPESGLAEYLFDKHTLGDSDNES", "assay": "one-step process incorporation of DOX into FTH ferritin", "type": "physicochemical", "conditions": "for incorporation efficiency of the reagent: FTH ferritin 1 mg/mL; for number of molecules of DOX incorporated into one molecule of FTH ferritin: presumed, average", "experimental": "(§1) In this reaction, an acetate buffer was used for pH 3, 4, 5 and 6, while Tris-HCl buffer was used for pH 7, 8 and 9. After the standing, 0.5 mL of water was added to the resulting solution. After the resulting solution was centrifuged (at 15,000 rpm for one minute), the supernatant was injected into a desalting column PD-10 (Sephadex G-25 filled product, GE Healthcare Inc.) equilibrated with 10 mM Tris-HCl buffer (pH 8) to separate the protein from a reagent that was not encapsulated. Whole amount (3.5 mL) of the resulting solution was concentrated to 0.1 mL by centrifugal ultrafiltration using Vivaspin 20-100K (GE Healthcare Inc.), and then absorbances at 280 nm and 480 nm were measured using spectrophotometer (DU-800, Beckman Coulter Inc.).\nas §1, with “After” for “In this reaction, an acetate buffer was used for pH 3, 4, 5 and 6, while Tris-HCl buffer was used for pH 7, 8 and 9. After”, “into the” for “into a”\nAfter the standing, 0.5 mL water was added to the resulting solution. After the resulting solution was centrifuged (at 15,000 rpm for one minute), the supernatant was injected into the desalting column PD-10 (Sephadex G-25 filled product, GE Healthcare Inc.) equilibrated with 10 mM Tris-HCl buffer (pH 8) to separate the protein from a reagent that was not encapsulated. Whole amount (3.5 mL) of the resulting solution was concentrated by centrifugal ultrafiltration using Vivaspin 20-100K (GE Healthcare Inc.). Glycine-HCl buffer (pH 2.3) was added to the resulting solution to achieve a final concentration of 100 mM, then a volume was controlled to 0.2 mL. […] The absorbance at 480 nm was measured using spectrophotometer (DU-800, Beckman Coulter Inc.) for the resulting solution in order to determine the concentration of DOX. The concentration of protein in the solution was determined using the protein assay CBB solution (Nacalai Tesque, Inc.) as well as bovine albumin as a standard.\nAfter the standing, 0.5 mL water was added to the resulting solution. After the resulting solution was centrifuged (at 15,000 rpm for one minute), the supernatant was injected into the desalting column PD-10 (Sephadex G-25 filled product, GE Healthcare Inc.) equilibrated with 10 mM Tris-HCl buffer (pH 8) to separate the protein from a reagent that was not encapsulated. Whole amount (3.5 mL) of the resulting solution was concentrated by centrifugal ultrafiltration using Vivaspin 20-100K (GE Healthcare Inc.). Glycine-HCl buffer (pH 2.3) was added to the resulting solution to achieve a final concentration of 100 mM, then a volume was controlled to 0.5 mL. The absorbance at 480 nm was measured using spectrophotometer (DU-800, Beckman Coulter Inc.) for the resulting solution in order to determine the concentration of DOX. The concentration of protein in the solution was determined using the protein assay CBB solution (Nacalai Tesque, Inc.) as well as bovine albumin as a standard."}, "[2]": {"conditions": "room temperature; cited from earlier work"}, "FTH ferritin [3]": {"molecular_target": "T1, FTH ferritin", "assay": "ratio of amounts incorporated, one-step vs disassembly-reassembly process", "type": "physicochemical", "experimental": "As a control, some of small molecule agents listed in Table 1 was incorporated into ferritin also at the disassembly-reassembly process. […] Then, 10 μL of 1M Tris-HCl buffer (pH 9.0) was added for neutralization, and the resulting solution was left to stand for 15 minutes at room temperature. After the standing, 0.5 mL of water was added. After the resulting solution was centrifuged (at 15,000 rpm for one minute), the supernatant was injected into the desalting column PD-10 (Sephadex G-25 filled product, GE Healthcare Inc.) equilibrated with 10 mM Tris-HCl buffer (pH 8) to separate the protein from a reagent that was not encapsulated. […]\nThe absorbances were measured using spectrophotometer (DU-800, Beckman Coulter Inc.) for these solutions, and the concentration of contained protein was determined using the protein assay CBB solution (Nacalai Tesque, Inc.) as well as bovine albumin as a standard. Absorbances at 280 nm and 480 nm were measured for Rhodamine B and Congo Red. […] Then, after the absorbances were calibrated based on the absorbances that were derived from the proteins and presumed by the amount of contained protein quantified using the protein assay CBB solution, the concentrations of small molecule agents were determined based on the calibration curves obtained by the absorbances of the molecules. […]"}, "FTH ferritin [4]": {"molecular_target": "T1, FTH ferritin", "assay": "estimation of state of DOX in FTH ferritin internal cavity", "conditions": "165 molecules of DOX per molecule of FTH ferritin, cavity volume 0.18 zL", "from_the_text": "Ferritin has a cage shape having a diameter of 12 nm, and the diameter of an internal cavity thereof is 7 nm. Ideally, the volume of the internal cavity is 0.18 zL (zL: Zepto little, 10 to the negative power of 21). […] In view of this, it is necessary to disassemble ferritin once to allow DOX to be released in advance for quantification of DOX incorporated in ferritin by means of spectroscopic evaluation."}, "[5]": {"conditions": "pH 9, 60° C., after 30 minutes, DOX 0.1 mg/mL"}},
  "note": "Counter-ions that a name gives are not always drawn.",
  "data": [
    {"smiles": "COc1cccc2c1C(=O)c1c(O)c3c(c(O)c1C2=O)C[C@@](O)(C(=O)CO)C[C@@H]3OC1CC(N)C(O)C(C)O1", "note": "(some centres unmarked) [DOX, Doxorubicin hydrochloride]", "values": [
      {"measurement": "incorporation efficiency of the reagent", "setting": "FTH ferritin [1]; pH 6 or less, 25° C., 60 minutes, DOX 0.1 mg/mL", "result": "≤ 0.5 ° (wt)"},
      {"measurement": "incorporation efficiency of the reagent", "setting": "FTH ferritin [1]; pH 9, 25° C., 60 minutes, DOX 0.1 mg/mL", "result": "≥ 1 % (wt)"},
      {"measurement": "incorporation efficiency of the reagent", "setting": "FTH ferritin [1]; pH 9, 60° C., 60 minutes, DOX 0.1 mg/mL", "result": "≥ 5 % (wt)"},
      {"measurement": "number of molecules of DOX incorporated into one molecule of FTH ferritin", "setting": "FTH ferritin [1]; pH 9, 60° C., 60 minutes, at maximum incorporation", "result": 165},
      {"measurement": "incorporation efficiency of the reagent at the maximum", "setting": "FTH ferritin [1]; pH 9, 60° C., 60 minutes, concentration ratio of FTH ferritin to DOX varied (10:3 or less)", "result": "16 % (wt)"},
      {"measurement": "maximum incorporation efficiency of the reagent", "setting": "FTH ferritin [1]; [5]", "result": "5 % (wt)"},
      {"measurement": "number of molecules of DOX incorporated into one molecule of FTH ferritin", "setting": "FTH ferritin [1]; [5]", "result": 50},
      {"measurement": "rate of DOX incorporation", "setting": "FTH ferritin [1]; pH 9, 60° C., until 30 minutes", "result": "1.7 mg-DOX/minute per gram of ferritin"},
      {"measurement": "solubility of DOX in water", "setting": "[2]", "result": "≥ 60", "unit": "mg/mL"},
      {"measurement": "ratio of amount incorporated at the one-step process to that at the disassembly-reassembly process", "setting": "FTH ferritin [3]", "result": 30, "unit": "fold"},
      {"measurement": "concentration of DOX in the internal cavity of ferritin", "setting": "FTH ferritin [4]", "result": 890, "unit": "g/L"}
    ]}
  ]
}
